The values that follow are results of earlier work, collected in patent US6818658B2, “Acylated piperidine derivatives as melanocortin-4 receptor agonists” (Merck & Co., Inc., priority 2001, dated 2004).

The conditions of data set [1]: patients.
The conditions of data set [2]: injected intramuscularly or subcutaneously, males with psychogenic erectile dysfunction.

With `Cc1ccc(N(CC2=NCCN2)c2cccc(O)c2)cc1` [phentolamine], the duration of effect in data set [1] was 2 h. The onset of action in data set [1] (for sildenafil after an oral dose) is 5 to 30 min. Consider “Ac-Nle-c[Asp-His-DPhe-Arg-Trp-Lys]-NH2 [MT-II]”, for which, in data set [2], the response rate was 75%.
